Broadly, the Ki is the equilibrium dissociation constant of an inhibitor or competing ligand from its target. High values mean lower affinity, low ones higher affinity.

The structures appear in SMILES notation.

For test [1], the target named is HDAC3 (with DAD of NCoR2) (Homo sapiens, UniProt O15379). The experiment in a line: fluorogenic activity assay with added InsP6. The format is biochemical. Conditions: activator; stabilises the HDAC3/NCoR2 DAD complex.
For another test, the target named is HDAC1 (Homo sapiens, UniProt Q13547). Put plainly: continuous fluorogenic AMC assay, progression curves, kobs fit. The format is biochemical.
Sequence of HDAC1 (Q13547 whole entry): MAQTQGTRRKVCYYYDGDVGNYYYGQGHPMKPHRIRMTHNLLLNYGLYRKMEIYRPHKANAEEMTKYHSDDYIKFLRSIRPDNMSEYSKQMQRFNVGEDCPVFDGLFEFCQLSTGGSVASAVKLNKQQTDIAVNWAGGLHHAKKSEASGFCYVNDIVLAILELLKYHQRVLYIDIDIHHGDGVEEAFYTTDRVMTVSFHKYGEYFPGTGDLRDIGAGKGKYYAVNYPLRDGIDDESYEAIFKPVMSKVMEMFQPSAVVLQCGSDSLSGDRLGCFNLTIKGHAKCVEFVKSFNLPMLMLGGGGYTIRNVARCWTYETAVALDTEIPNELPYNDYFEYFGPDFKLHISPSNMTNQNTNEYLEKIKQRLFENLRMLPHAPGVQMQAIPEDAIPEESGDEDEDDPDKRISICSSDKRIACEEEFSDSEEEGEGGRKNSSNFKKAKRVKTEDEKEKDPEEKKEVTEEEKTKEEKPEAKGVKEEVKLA

Sequence of HDAC3 (with DAD of NCoR2) (O15379 whole entry): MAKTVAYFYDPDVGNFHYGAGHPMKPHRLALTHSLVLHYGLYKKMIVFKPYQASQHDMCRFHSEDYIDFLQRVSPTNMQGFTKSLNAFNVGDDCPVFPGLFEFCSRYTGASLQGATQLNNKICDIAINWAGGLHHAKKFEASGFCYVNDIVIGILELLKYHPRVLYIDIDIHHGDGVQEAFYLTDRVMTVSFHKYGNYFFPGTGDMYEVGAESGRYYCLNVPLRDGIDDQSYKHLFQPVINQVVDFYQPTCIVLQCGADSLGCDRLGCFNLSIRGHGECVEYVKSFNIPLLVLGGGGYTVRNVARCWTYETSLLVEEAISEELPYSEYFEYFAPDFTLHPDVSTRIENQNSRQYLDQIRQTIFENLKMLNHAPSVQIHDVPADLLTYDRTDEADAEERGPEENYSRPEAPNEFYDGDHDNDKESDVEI
Sequence of HDAC3 (with DAD of NCoR2) (Q9Y618 395-489 partner limits assumed): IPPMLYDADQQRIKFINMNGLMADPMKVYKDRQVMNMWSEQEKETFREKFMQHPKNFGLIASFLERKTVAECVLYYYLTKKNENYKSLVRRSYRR

With `O=P(O)(O)O[C@H]1[C@H](OP(=O)(O)O)[C@@H](OP(=O)(O)O)[C@H](OP(=O)(O)O)[C@@H](OP(=O)(O)O)[C@H]1OP(=O)(O)O` [inositol hexaphosphate], the “fluorogenic activity assay with added InsP6” value in test [1] is “Addition of InsP6 enhanced HDAC activity”.

Turning to `CCCNNC(=O)c1ccc(CNC(=O)/C=C/c2ccccc2)cc1` [compound 5], on HDAC1, the Ki is ~40 nM.

Values taken from paper doi:10.1101/2021.12.18.473277v2 (biorxiv, 2022).
